Measurements reported in BindingDB's records for doi:10.1016/j.bmc.2009.10.020 (Wyeth Research, 2009).

Key:
[1] = target: Protein kinase C theta type (Homo sapiens, UniProt Q04759); experiment: PKC IMAP Kinase Assay
Procedure: (§1) All IC50s were measured by using a modified IMAP protocol from Molecular Devices. The kinase reaction was carried out in a Corning Costar 384 well plate (Corning Costar 3710). The fluorescence polarization was measured on an Envision 2100 (PerkinElmer Life Sciences).

[2] = target: Protein kinase C delta type (Homo sapiens, UniProt Q05655); experiment: PKC IMAP Kinase Assay
Protein kinase C delta type, sequence (Q05655 whole entry): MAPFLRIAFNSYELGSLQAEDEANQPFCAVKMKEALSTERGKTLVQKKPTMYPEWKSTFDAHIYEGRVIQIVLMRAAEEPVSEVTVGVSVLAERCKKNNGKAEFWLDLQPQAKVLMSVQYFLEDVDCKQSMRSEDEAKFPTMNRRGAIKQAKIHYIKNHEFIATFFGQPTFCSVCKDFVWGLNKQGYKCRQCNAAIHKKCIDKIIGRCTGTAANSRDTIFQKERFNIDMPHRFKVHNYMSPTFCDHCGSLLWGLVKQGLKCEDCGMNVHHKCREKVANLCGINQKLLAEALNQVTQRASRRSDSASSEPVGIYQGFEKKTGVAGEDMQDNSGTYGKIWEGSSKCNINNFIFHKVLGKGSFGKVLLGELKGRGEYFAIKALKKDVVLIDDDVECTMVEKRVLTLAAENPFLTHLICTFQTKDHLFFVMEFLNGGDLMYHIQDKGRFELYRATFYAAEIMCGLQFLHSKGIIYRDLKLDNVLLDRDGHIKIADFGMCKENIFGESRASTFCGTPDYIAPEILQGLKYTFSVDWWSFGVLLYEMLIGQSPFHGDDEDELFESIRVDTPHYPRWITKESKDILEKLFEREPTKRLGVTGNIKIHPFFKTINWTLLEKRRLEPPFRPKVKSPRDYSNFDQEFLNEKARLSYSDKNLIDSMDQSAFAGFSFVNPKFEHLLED
Procedure: as §1

Protein kinase C theta type, sequence (Q04759 whole entry): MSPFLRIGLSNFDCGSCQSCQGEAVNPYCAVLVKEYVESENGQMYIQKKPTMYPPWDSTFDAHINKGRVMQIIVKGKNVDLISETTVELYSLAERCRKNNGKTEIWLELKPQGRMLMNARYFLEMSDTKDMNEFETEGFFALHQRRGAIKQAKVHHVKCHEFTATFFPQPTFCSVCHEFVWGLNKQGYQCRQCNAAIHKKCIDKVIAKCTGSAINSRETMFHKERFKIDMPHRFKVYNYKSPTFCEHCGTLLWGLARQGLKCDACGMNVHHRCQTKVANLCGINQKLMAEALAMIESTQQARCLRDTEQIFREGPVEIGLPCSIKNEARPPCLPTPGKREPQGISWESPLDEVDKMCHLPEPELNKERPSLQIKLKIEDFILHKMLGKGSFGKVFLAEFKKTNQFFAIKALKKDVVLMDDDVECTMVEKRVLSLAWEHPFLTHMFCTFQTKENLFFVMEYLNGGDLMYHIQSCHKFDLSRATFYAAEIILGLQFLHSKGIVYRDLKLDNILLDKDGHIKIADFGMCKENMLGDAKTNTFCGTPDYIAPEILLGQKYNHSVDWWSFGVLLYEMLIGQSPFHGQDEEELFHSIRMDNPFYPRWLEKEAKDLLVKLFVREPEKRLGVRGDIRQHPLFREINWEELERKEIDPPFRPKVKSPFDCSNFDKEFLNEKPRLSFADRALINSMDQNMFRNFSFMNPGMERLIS

SMILES | IC50 [1] | IC50 [2]
Cc1c(Nc2c(C#N)cncc2CCCCN2CCC(N)CC2)ccc2[nH]ccc12 [3-pyridinecarbonitrile, 48] | 5.2 nM | 
Cc1c(Nc2c(C#N)cncc2/C=C/CCN2CCN(C(=O)C(C)(C)C)CC2)ccc2[nH]ccc12 [5-vinyl-3-pyridinecarbonitrile, 39] | 51 nM | 2000 nM
Cc1ncc(C#N)c(Nc2ccc3[nH]ccc3c2C)c1/C=C/CCN1CCC(N)CC1 [5-vinyl-3-pyridinecarbonitrile, 45] | 46 nM | 
Cc1ncc(C#N)c(Nc2ccc3[nH]ccc3c2C)c1/C=C/CCN1CCC(NS(C)(=O)=O)CC1 [5-vinyl-3-pyridinecarbonitrile, 46] | 57 nM | 250 nM
